From patent US12404252B2, “Salt of 2-amino-2-(2-(1-decyl-1H-1,2,3-triazol-4-yl)ethyl)propane-1,3-diol, and pharmaceutical composition containing same” (NEXTGEN BIOSCIENCE CO., LTD, priority 2021, dated 2025)
Where two headings read alike, the source gives them in different places.

Columns and labels:
[1] = Hygroscopicity test by DVS; assay type: physicochemical; conditions: for DVS remark (adsorption at 90% RH): water adsorption at 90% RH
Excerpt: Dynamic vapor sorption (DVS) is a method that has been used for a long time to investigate the interactions between active pharmaceutical ingredients (APIs), and pharmaceutical preparations and water. Here, to analyze the water absorption rate of a sample at a specific temperature, measurements are made by exposing the sample to the desired relative humidity using a DVS water sorption analyzer (hygroscopicity analyzer) until the change in weight of the sample stabilizes.

[2] = test system: dextran sulfate sodium (DSS)-induced colitis model; assay: DSS-induced colitis mouse model, disease activity index; assay type: in vivo; conditions: DSS mice
Description: The effectiveness of Compound 1a against inflammatory bowel disease was evaluated using the dextran sulfate sodium (DSS)-induced colitis model. In the mouse model, inflammatory bowel disease was induced by administering DSS to mice at a concentration of 2.5% via drinking water. Mice were divided into a test group administered Compound 1a, a positive control group administered ozanimod or MTX (methotrexate), a vehicle group, and a normal control group, and each group had n=10. Compound 1, a compound of the present invention, was orally administered at doses of 5 and 10 mg/kg once a day for 7 days to the inflammatory bowel disease-induced model, and ozanimod as a positive control was administered orally at a dose of 5 mg/kg once a day, and MTX (methotrexate) as a positive control was administered intraperitoneally at a dose of 3 mg/kg three times a week.
DAI represents the total score of weight loss relative to initial weight, stool consistency, and degree of intestinal bleeding of the mouse. The criteria for calculation of DAI are shown in Table 10 below, and DAI was evaluated on days 0, 1, 2, 3, 4, 5, 6, 7, and 8.

[3] = test system: unilateral ureteral obstruction (UUO) model; assay: Unilateral ureteral obstruction (UUO) renal fibrosis model; assay type: in vivo; conditions: UUO mice, 30 mg/kg/day orally, 2 weeks
Description: The antifibrotic effect of Compound 1a in renal disease was evaluated using the unilateral ureteral obstruction (UUO) model, which is a renal fibrotic disease model. Kidney fibrosis was induced by unilateral ureteral obstruction of mice, and then Compound 1a at 10, 30, and 90 mg/kg/day and the positive control substance telmisartan at 30 mg/kg/day were orally administered to the mice once a day for 2 weeks.

[4] = test system: adenine-induced chronic kidney disease model; assay: Adenine-induced chronic kidney disease model; assay type: in vivo; conditions: adenine-induced CKD mice, 10 mg/kg/day orally, 3 weeks
Description: The antifibrotic effect of Compound 1a was evaluated using an adenine-induced chronic kidney disease model. 0.5% adenine (in 0.5% CMC) was orally administered to mice for 4 weeks to induce chronic kidney disease, and Compound 1a at 10, 30, and 90 mg/kg/day and the positive control substance telmisartan 10 mg/kg/day were administered orally to the mice for 3 weeks, followed by measurement of serum creatinine, serum BUN, and kidney hydroxyproline, and histopathology. In addition, the tubular-interstitial index value was determined based on the above measurement results.

[5] = Solubility in aqueous media (HPLC); assay type: physicochemical; conditions: same conditions as Compound 1a, some samples
Description: The solubility of Compound 1a prepared in Example 1 was evaluated in several different media, including pH 1.2 hydrochloric acid buffer, pH 3.0 citrate buffer, pH 4.7 acetate buffer, pH 6.8 phosphate buffer, simulated gastric fluid, fasted-state simulated intestinal fluid, fed-state simulated intestinal fluid, and water. About 2.17 mg of sample (based on the free base of Compound 1) for each medium was taken into a 2-mL transparent glass vial and […] of medium was added (constituents of the salt were considered Compound 1: counterion=1:0.5; target concentration: 2 mg/mL). The mixture was stirred using a magnetic stirrer at 250 RPM for 24 hours at 25° C. Next, the pH and appearance of the mixture were recorded and the mixture was filtered through a MultiScreen® HTS-HV 96-well plate (manufactured by Merck; 0.45-μm hydrophilic, low-protein-binding Durapore® membrane). Solubility was determined using HPLC, and a calibration curve was created by injecting a known concentration of Compound 1a. The filtered sample was injected (diluted appropriately as necessary) and the concentration of Compound 1a (mg/mL) in the filtrate was calculated from the calibration curve (taking salt coefficient into account). The analysis results are as follows.

[6] = Standard stock solution stability, 40° C./75±5% RH; assay type: physicochemical; conditions: 40° C./75% RH
Description: The stability of the crystalline compound was examined at 40° C./75±5% RH. Physical stability was examined through comparative XRPD analysis before and after the test, and chemical stability was examined by HPLC method. The experimental conditions used in the stability test for Compound 1a and the test results are as follows.
40° C./75±5% RH: Conditions in which the vial was open and upright.
(§1) A required amount (˜1 mg) of solid material was dissolved in 1 mL of a diluent (1:1 methanol/water), and the prepared solution was analyzed by HPLC.

[7] = Standard stock solution stability, 60° C./75±5% RH; assay type: physicochemical; conditions: 2 weeks under 60° C./75±5% RH
Description: The stability of the crystalline compound was under 60° C./75±5% RH conditions, and the purity thereof was examined by HPLC method. The experimental conditions used in the stability test for Compound 1a and the test results are as follows.
60° C./75±5% RH: Conditions in which the vial was open and upright.
as §1

[8] = pH stability and salinity stability, 40±2° C.; assay type: physicochemical
Description: pH and salinity stability tests for the hemifumirate salt of Compound 1 were performed at an initial target concentration of 2 mg/mL. The pH and salinity stability conditions used to evaluate the hemifumirate salt of Compound 1 and the evaluation results are as follows.
• 40±2° C.: Conditions in which the vial was capped and upright • Storage container for stability: 2-mL screw neck clear glass vial (manufactured by La-Pha-Pack) • Target concentration: ˜ 2 mg/mL (adding the sample to 1 mL of medium, followed by vortexing for 30 seconds) • 500 μL of the test mixture was dissolved in 500 μL of a diluent (1:1 methanol/water), and the prepared solution was analyzed by HPLC without filtration.

Photostability test = assay type: physicochemical
Description: For a photostability test, 10 mg of Compound 1a was exposed to 1.2 million lux hours of ultraviolet and visible light at room temperature. For an oxidation stability test, 0.2 mL of 30% H2O2 and 1 mg of Compound 1a were placed in a 2-mL vial and stored at 25° C. for up to 24 hours. The photostability and oxidation stability conditions used to evaluate the fumarate salt of Compound 1 and the evaluation results are as follows.

[9] = Oxidation stability test (30% H2O2); assay type: physicochemical
[10] = Corrosion of a sample stored together with the substance at 60° C.; assay type: physicochemical; conditions: stored together with the sample for 2 weeks at 60° C.
Description: FIG. 12 depicts photograph showing the results of checking the degree of corrosion of a sample after storing each of the free base of Compound 1, Compound 1a, and a hydrochloride salt of Compound 1 together with the sample under 60° C. conditions for 2 weeks.

[11] = pH stability and salinity stability, 40±2° C.; assay type: physicochemical; remark: listed apart in the source
pKa of the free base = assay type: physicochemical; conditions: natural conditions
Description: The method for preparing the salt of the present invention and the process of selecting the salt thereby are as follows. […] Specifically, acids that were appropriate for matching the pKa of the free base of Compound 1 described above were calculated by computer, and these acids were mainly identified as acids having a pKa of about 2 to 5.

[12] = biological target: hERG potassium ion channel (Homo sapiens, UniProt Q12809)
hERG potassium ion channel, sequence (Q12809 whole entry): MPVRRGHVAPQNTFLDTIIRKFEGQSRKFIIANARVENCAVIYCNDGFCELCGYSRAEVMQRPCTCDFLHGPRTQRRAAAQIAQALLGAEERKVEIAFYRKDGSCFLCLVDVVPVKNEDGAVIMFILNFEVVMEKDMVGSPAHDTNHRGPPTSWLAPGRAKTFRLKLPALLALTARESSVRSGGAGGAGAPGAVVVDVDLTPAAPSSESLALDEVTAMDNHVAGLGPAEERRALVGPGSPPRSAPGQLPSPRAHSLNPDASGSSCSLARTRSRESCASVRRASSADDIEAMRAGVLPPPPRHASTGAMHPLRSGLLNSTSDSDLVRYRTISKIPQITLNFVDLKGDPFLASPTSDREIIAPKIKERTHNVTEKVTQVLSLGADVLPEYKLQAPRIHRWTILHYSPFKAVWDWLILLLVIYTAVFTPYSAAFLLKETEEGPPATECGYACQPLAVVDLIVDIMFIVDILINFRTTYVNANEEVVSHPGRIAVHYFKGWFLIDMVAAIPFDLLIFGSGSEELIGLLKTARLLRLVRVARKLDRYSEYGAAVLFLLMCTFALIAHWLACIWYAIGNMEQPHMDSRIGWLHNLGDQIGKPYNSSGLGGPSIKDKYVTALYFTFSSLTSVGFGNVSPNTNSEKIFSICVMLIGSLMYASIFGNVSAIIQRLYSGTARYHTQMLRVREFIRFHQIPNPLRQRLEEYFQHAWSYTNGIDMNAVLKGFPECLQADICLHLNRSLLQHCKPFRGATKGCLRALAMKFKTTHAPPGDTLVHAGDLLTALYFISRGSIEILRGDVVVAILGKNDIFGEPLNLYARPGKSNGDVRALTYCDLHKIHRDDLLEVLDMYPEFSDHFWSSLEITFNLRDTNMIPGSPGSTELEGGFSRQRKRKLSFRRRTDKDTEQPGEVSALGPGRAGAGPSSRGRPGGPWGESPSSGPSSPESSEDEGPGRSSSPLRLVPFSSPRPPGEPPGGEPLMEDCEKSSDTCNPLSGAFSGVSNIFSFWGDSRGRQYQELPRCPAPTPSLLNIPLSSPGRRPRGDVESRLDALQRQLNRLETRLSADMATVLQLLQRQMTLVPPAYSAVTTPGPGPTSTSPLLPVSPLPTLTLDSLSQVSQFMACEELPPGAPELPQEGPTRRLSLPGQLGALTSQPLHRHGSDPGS

For `CC(=O)O.CCCCCCCCCCn1cc(CCC(N)(CO)CO)nn1` [compound 4], which “DVS remark (adsorption at 90% RH)” value [1] is on record?
The value was 33.67%.

For `CC(=O)O.CCCCCCCCCCn1cc(CCC(N)(CO)CO)nn1` [compound 3], which “DVS remark (adsorption at 90% RH)” value [1] is on record?
The value was 34.33%.

For `CN(Cc1cnc2nc(N)nc(N)c2n1)c1ccc(C(=O)N[C@@H](CCC(=O)O)C(=O)O)cc1` [MTX, methotrexate, reference compound], which “disease activity index (DAI) compared to negative control group (vehicle)” value ([2]; 3 mg/kg intraperitoneally three times a week) is on record?
The value was “statistically significantly decreased”.

Which Kidney hydroxyproline [3] does the source give for `CCCc1nc2c(C)cc(-c3nc4ccccc4n3C)cc2n1Cc1ccc(-c2ccccc2C(=O)O)cc1` [telmisartan, reference compound] here?
The Kidney hydroxyproline was “statistically significantly reduced”.

What about the “kidney fibrosis (tubular-interstitial index)” value [4] of the same compound?
Its value is “statistically significantly decreased”.

With `CCCCCCCCCCn1cc(CCC(N)(CO)CO)nn1.Cl` [Comparative Example 1, reference compound] as the compound, how does the “behaviour in natural conditions” value ([1]; natural conditions) read?
Its value is “exhibited deliquescence”.

And the “DVS remark (adsorption at 90% RH)” value [1]?
The value was 49.5%.

And the “DVS remark (adsorption at 90% RH)” value ([1]; listed as hydrochloride salt of Compound 1)?
The value was 49.5%.

What about the “appearance in aqueous media” value [5] of the same compound?
The value was “undissolved suspension form in some samples”.

What about the Purity % ([6]; 1-week) of the same compound?
The Purity % was 99.00%.

What about the “XRPD (physical stability)” value ([6]; 1-week, listed as Hydrochloride salt of Compound 1) of the same compound?
The value was “Turned into liquid”.

What about the “XRPD (physical stability)” value ([6]; 1-week, listed as hydrochloride salt of Compound 1) of the same compound?
Its value is “turned into a liquid phase”.

And the Purity % ([6]; 2-week)?
The Purity % was 99.22%.

And the Purity % ([6]; Initial)?
Its Purity % is 99.34%.

What about the “XRPD (physical stability)” value ([6]; Initial) of the same compound?
Its value is “Crystalline”.

And the change in appearance [7]?
Its change in appearance is “turned into a liquid phase”.

And the Purity % ([8]; Saline (0.9% NaCl)/40° C., Initial)?
Its Purity % is 99.43%.

And the Purity % ([8]; pH 6.8 phosphate buffer/40° C., 1-week)?
Its Purity % is 98.04%.

And the Purity % ([8]; pH 6.8 phosphate buffer/40° C., Initial)?
Its Purity % is 98.93%.

What about the Purity % (Photostability test; Photostability 1.2 million lux hours exposed) of the same compound?
Its Purity % is 98.75%.

And the Purity % (Photostability test; Photostability 1.2 million lux hours unexposed)?
The Purity % was 99.35%.

And the Purity % ([9]; 30% H2O2 60° C. for 20 hours)?
Its Purity % is 91.23%.

And the “degree of corrosion of the sample” value [10]?
Its value is “corrosion occurred”.

What about the Purity % ([11]; Saline (0.9% NaCl)/40° C., 1-week, listed as Hydrochloride salt of Compound 1) of the same compound?
The Purity % was 98.00%.

What about the Purity % ([11]; Saline (0.9% NaCl)/40° C., 1-week, listed as hydrochloride salt of Compound 1) of the same compound?
The Purity % was ≤ 98%.

And the Purity % ([11]; pH 6.8 phosphate buffer/40° C., 2-week, listed as Hydrochloride salt of Compound 1)?
The Purity % was 97.87%.

And the Purity % ([11]; pH 6.8 phosphate buffer/40° C., 2-week, listed as hydrochloride salt of Compound 1)?
Its Purity % is “less than 98%”.

For `CCCCCCCCCCn1cc(CCC(N)(CO)CO)nn1` [Compound 1, 2-Amino-2-(2-(1-decyl-1H-1,2,3-triazol-4-yl)ethyl) propane-1,3-diol], which decomposition rate ([9]; oxidative stress conditions, after 20 hours) is on record?
Its decomposition rate is ≥ 8%.

And the pKa (pKa of the free base)?
The pKa was 8.12.

What about the “compensated suppression rate (%) of hERG channel currents” value (“compensated suppression rate (%)” for short) ([12]; 1 μM) of the same compound?
The value was 9.94±1.96%.

And the “compensated suppression rate (%)” value ([12]; 3 μM)?
The value was 13.98±4.48%.

And the “compensated suppression rate (%)” value ([12]; 10 μM)?
Its value is 35.03±12.09%.

And the “compensated suppression rate (%)” value ([12]; 30 μM)?
Its value is 82.62±7.31%.

With `CC(C)Oc1ccc(-c2nc(-c3cccc4c3CC[C@@H]4NCCO)no2)cc1C#N` [ozanimod, reference compound] as the compound, how does the “disease activity index (DAI) compared to negative control group (vehicle)” value ([2]; 5 mg/kg orally once a day) read?
The value was “statistically significantly decreased”.

For `CCCCCCCCCCn1cc(CCC(N)(CO)CO)nn1.O=C(O)CCC(=O)O` [compound 2], which “DVS remark (adsorption at 90% RH)” value [1] is on record?
Its value is 19.42%.

With `CCCCCCCCCCn1cc(CCC(N)(CO)CO)nn1.O=C(O)CC(O)(CC(=O)O)C(=O)O` [compound 6] as the compound, how does the “DVS remark (adsorption at 90% RH)” value [1] read?
The value was 22.80%.

For `CCCCCCCCCCn1cc(CCC(N)(CO)CO)nn1.O=C(O)CCCCC(=O)O` [compound 5], which “DVS remark (adsorption at 90% RH)” value [1] is on record?
Its value is 22.46%.

Which “hygroscopicity (DVS evaluation, in words)” value ([1]; 90% RH, listed as Example 2) does the source give for `CCCCCCCCCCn1cc(CCC(N)(CO)CO)nn1` [Compound 1b, 2-amino-2-(2-(1-decyl-1H-1,2,3-triazol-4-yl)ethyl) propane-1,3-diol] here?
Its value is “low hygroscopicity”.

And the “DVS remark (adsorption at 90% RH)” value ([1]; listed as Example 2)?
The value was 4.563%.
